Patent US8344004B2, “Cyclic pyridyl-N-[1,3,4]-thiadiazol-2-yl-benzene sulfonamides, processes for their preparation and their use as pharmaceuticals” (Sanofi, priority 2007, dated 2013)
Where two headings read alike, the source gives them in different places.

What was measured:
[1] = diabetic animal model; cited from earlier work
[2] = biological target: T1, human PPARdelta (Homo sapiens, UniProt Q03181); test: Cellular PPARdelta assay (stably transfected HEK luciferase reporter cell line); type: cell-based; conditions: GR-GAL4-humanPPARdelta-LBD
T1 construct: amino acids S139-Y441; expressed in transfected cells; host or cells: HEK cells, stably transfected (pcDNA3, CMV promoter)
T1 sequence (Q03181 139-441): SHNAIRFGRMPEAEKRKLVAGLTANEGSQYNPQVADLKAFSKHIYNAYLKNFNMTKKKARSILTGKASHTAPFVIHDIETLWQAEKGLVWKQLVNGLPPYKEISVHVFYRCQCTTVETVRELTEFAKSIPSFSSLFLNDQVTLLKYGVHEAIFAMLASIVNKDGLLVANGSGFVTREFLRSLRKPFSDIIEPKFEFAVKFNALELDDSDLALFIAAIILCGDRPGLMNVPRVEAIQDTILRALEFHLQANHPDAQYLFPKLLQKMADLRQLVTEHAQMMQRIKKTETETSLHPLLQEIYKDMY
Procedure: The PPARalphareporter cell line is cultivated to 80% confluence in DMEM (#41965-039, Invitrogen) which is mixed with the following additions: 10% cs-FCS (fetal calf serum; #SH-30068.03, Hyclone), 0.5 mg/ml zeocin (#R250-01, Invitrogen), 0.5 mg/ml G418 (#10131-027, Invitrogen), 1% penicillin-streptomycin solution (#15140-122, Invitrogen) and 2 mM L-glutamine (#25030-024, Invitrogen). The cultivation takes place in standard cell culture bottles (# 353112, Becton Dickinson) in a cell culture incubator at 37° C. in the presence of 5% CO2. The 80%-confluent cells are washed once with 15 ml of PBS (#14190-094, Invitrogen), treated with 3 ml of trypsin solution (#25300-054, Invitrogen) at 37° C. for 2 min, taken up in 5 ml of the DMEM described and counted in a cell counter. After dilution to 500.000 cells/ml, 35,000 cells are seeded in each well of a 96 well microtiter plate with a clear plastic base (#3610, Corning Costar). The plates are incubated in the cell culture incubator at 37° C. and 5% CO2 for 24 h.
PPARalpha agonists to be tested are dissolved in DMSO in a concentration of 10 mM. This stock solution is diluted in DMEM (#41965-039, Invitrogen) which is mixed with 5% cs-FCS (#SH-30068.03, Hyclone), 2 mM L-glutamine (#25030-024, Invitrogen) and the previously described antibiotics (zeocin, G418, penicillin and streptomycin). Test substances are tested in 11 different concentrations in the range from 10 μM to 100 pM.
The medium of the PPARalpha reporter cell line seeded on day 1 is completely removed by aspiration, and the test substances diluted in medium are immediately added to the cells. The dilution and addition of the substances is carried out by a robot (Beckman FX). The final volume of the test substances diluted in medium is 100 μl per well of a 96 well microtiter plate. The DMSO concentration in the assay is less than 0.1% v/v in order to avoid cytotoxic effects of the solvent.
The assay plates are incubated in an incubator at 37° C. and 5% CO2 for 24 h.
The PPARalpha reporter cells treated with the test substances are removed from the incubator, and the medium is aspirated off. The cells are lyzed by pipetting 50 μl of Bright Glo reagent (from Promega) into each well of a 96 well microtiter plate. After incubation at room temperature in the dark for 10 minutes, the microtiter plates are measured in the luminometer (Trilux from Wallac). The measuring time for each well of a microtiter plate is 1 sec.
The raw data from the luminometer are transferred into a Microsoft Excel file. Dose-effect plots and EC50 values of PPAR agonists are calculated using the XL.Fit program as specified by the manufacturer (IDBS).
The potency of substances which bind to human PPARdelta and activate it in an agonistic manner is analyzed using a stably transfected HEK cell line (HEK=human embryo kidney) which is referred to here as PPARdelta reporter cell line. In analogy to the assay described for PPARalpha, the PPARdelta reporter cell line also contains two genetic elements, a luciferase reporter element (pdeltaM-GAL4-Luc-Zeo) and a PPARdelta fusion protein (GR-GAL4-humanPPARdelta-LBD) which mediates expression of the luciferase reporter element depending on a PPARdelta ligand. […] The luciferase which is formed can be detected by means of chemiluminescence via an appropriate substrate. […]

[3] = biological target: T2, human PPARgamma (Homo sapiens, UniProt P37231); test: Cellular PPARgamma assay (transiently transfected HEK cells, luciferase reporter); type: cell-based; conditions: GAL4-humanPPARgammaLBD
T2 construct: amino acids I152-Y475; expressed in transfected cells; host or cells: HEK cells, transiently transfected with pcDNA3-GAL4-humanPPARgammaLBD
T2 sequence (P37231 182-477 isoform P37231-2 limits assumed): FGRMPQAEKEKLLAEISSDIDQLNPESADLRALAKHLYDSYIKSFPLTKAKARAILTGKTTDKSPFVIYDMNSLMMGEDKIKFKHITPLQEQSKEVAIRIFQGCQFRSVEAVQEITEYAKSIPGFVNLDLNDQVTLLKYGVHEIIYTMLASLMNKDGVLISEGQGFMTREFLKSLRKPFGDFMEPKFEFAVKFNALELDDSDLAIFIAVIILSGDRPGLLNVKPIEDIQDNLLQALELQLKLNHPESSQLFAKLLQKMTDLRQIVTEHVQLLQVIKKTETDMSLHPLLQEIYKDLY
Text: A transient transfection system is employed to determine the cellular PPARgamma activity of PPAR agonists. It is based on the use of a luciferase reporter plasmid (pGL3basic-5×GAL4-TK) and of a PPARgamma expression plasmid (pcDNA3-GAL4-humanPPARgammaLBD). Both plasmids are transiently transfected into human embryonic kidney cells (HEK cells). There is then expression in these cells of the fusion protein GAL4-humanPPARgammaLBD which binds to the GAL4 binding sites of the reporter plasmid. In the presence of a PPARgamma-active ligand, the activated fusion protein GAL4-humanPPARgammaLBD induces expression of the luciferase reporter gene, which can be detected in the form of a chemiluminescence signal after addition of a luciferase substrate. As a difference from the stably transfected PPARalpha reporter cell line, in the cellular PPARgamma assay the two components (luciferase reporter plasmid and PPARgamma expression plasmid) are transiently transfected into HEK cells because stable and permanent expression of the PPARgamma fusion protein is cytotoxic.
The luciferase reporter plasmid pGL3basic-5×GAL4-TK is based on the vector pGL3basic from Promega. The reporter plasmid is prepared by cloning five binding sites of the yeast transcription factor GAL4 (each binding site with the sequence 5′-CTCGGAGGACAGTACTCCG-3′), together with a 160 bp-long thymidine kinase promoter section (Genbank Accession # AF027128) 5′-upstream into pGL3basic. 3′-downstream of the thymidine kinase promoter is the complete luciferase gene from Photinus pyralis (Genbank Accession # M15077) which is already a constituent of the plasmid pGL3basic used. The cloning and sequencing of the reporter plasmid pGL3basic-5×GAL4-TK took place in analogy to the description in Sambrook J. et. al. (Molecular cloning, Cold Spring Harbor Laboratory Press, 1989).
The PPARgamma expression plasmid pcDNA3-GAL4-humanPPARgammaLBD was prepared by first cloning the cDNA coding for amino acids 1-147 of the yeast transcription factor GAL4 (Genbank Accession # P04386) into the plasmid pcDNA3 (from Invitrogen) 3′-downstream of the cytomegalovirus promoter. Subsequently, the cDNA of the ligand-binding domain (LBD) of the human PPARgamma receptor (amino acids I152-Y475; Accession # g1480099) 3′-downstream of the GAL4 DNA binding domain. Cloning and sequencing of the PPARgamma expression plasmid pcDNA3-GAL4-humanPPARgammaLBD again took place in analogy to the description in Sambrook J. et. al. (Molecular cloning, Cold Spring Harbor Laboratory Press, 1989). Besides the luciferase reporter plasmid pGL3basic-5×GAL4-TK and the PPARgamma expression plasmid pcDNA3-GAL4-humanPPARgammaLBD, also used for the cellular PPARgamma assay are the reference plasmid pRL-CMV (from Promega) and the plasmid pBluescript SK(+) from Stratagene. All four plasmids were prepared using a plasmid preparation kit from Qiagen, which ensured a plasmid quality with a minimal endotoxin content, before transfection into HEK cells.
The activity of PPARgamma agonists is determined in a 4-day assay which is described below. Before the transfection, HEK cells are cultivated in DMEM (#41965-039, Invitrogen) which is mixed with the following additions: 10% FCS (#16000-044, Invitrogen), 1% penicillin-streptomycin solution (#15140-122, Invitrogen) and 2 mM L-glutamine (#25030-024, Invitrogen).
Firstly, solution A, a transfection mixture which contains all four plasmids previously described in addition to DMEM, is prepared. […]

[4] = rhesus and cynomolgus monkeys; cited from earlier work
[5] = two weeks clinical trials in healthy volunteers; cited from earlier work
[6] = obese, insulin resistant rhesus monkeys; cited from earlier work

Row | SMILES | EC50 [2] [µM] | EC50 [3] [µM] | further results
1 | CCCc1c(OCCCOc2ccc(OCC(=O)O)cc2)ccc(C(C)=O)c1O [Example L-165041] |  |  | plasma cholesterol [1]: raises plasma cholesterol
2 | CC(C)c1nnc(NS(=O)(=O)c2ccc([C@@H]3CCC[C@H]3Nc3ncc(C(F)(F)F)cc3Cl)cc2)s1 [Example 2, Trans-4-[(1S,2R)-2-(3-chloro-5-trifluoromethyl-pyridin-2-ylamino)-cyclopentyl]-N-(5-isopropyl-[1,3,4]thiadiazol-2-yl)-benzene-sulfonamide] | 0.067 | 0.647 | 
3 | CC(C)c1nnc(NS(=O)(=O)c2cc3c(cc2Cl)CC(Nc2ncc(C(F)(F)F)cc2Cl)C3)s1 (centres unmarked) [Example 8, 6-Chloro-2-(3-chloro-5-trifluoromethyl-pyridin-2-ylamino)-indan-5-sulfonic acid (5-isopropyl-[1,3,4]thiadiazol-2-yl)amide] | 0.779 | > 10 | 
4 | CC(C)c1nnc(NS(=O)(=O)c2ccc(C3(CNc4ncc(C(F)(F)F)cc4Cl)CCCCC3)cc2)s1 [Example 1, 4-{1-[(3-Chloro-5-trifluoromethyl-pyridin-2-ylamino)-methyl]-cyclohexyl}-N-(5-isopropyl-[1,3,4]thiadiazol-2-yl)-benzenesulfonamide] | 0.06 | 0.026 | 
5 | CC(C)c1nnc(NS(=O)(=O)c2ccc([C@@H]3CCC[C@@H]3Nc3ncc(C(F)(F)F)cc3Cl)cc2)s1 [Example 3, Cis-4-[(1S,2R)-2-(3-chloro-5-trifluoromethyl-pyridin-2-ylamino)-cyclopentyl]-N-(5-isopropyl-[1,3,4]thiadiazol-2-yl)-benzene-sulfonamide] | 0.001 | 1.8 | 
6 | CCCc1c(OCCCSc2nnc(SCC(=O)O)s2)ccc(C(C)=O)c1O [YM-16638] |  |  | plasma lipids [4]: significantly lowers; plasma lipids [5]: acts in a similar manner
7 | CC(C)c1nnc(NS(=O)(=O)c2ccc(C3(CNc4ncc(C(F)(F)F)cc4Cl)CCCC3)cc2)s1 [Example 4, 4-{1-[(3-Chloro-5-trifluoromethyl-pyridin-2-ylamino)-methyl]-cyclopentyl}-N-(5-isopropyl-[1,3,4]thiadiazol-2-yl)-benzene-sulfonamide] | 0.22 | 0.99 | 
8 | Cc1cc(SCc2sc(-c3ccc(C(F)(F)F)cc3)nc2C)ccc1OCC(=O)O [GW501516] |  |  | HDL-cholesterol [6]: raises; insulin levels [6]: decreases; plasma LDL-cholesterol [6]: decreases; triglycerides [6]: decreases
